In ChEMBL document CHEMBL1157687, “Inhibitory activity of Brazilian green propolis components and their derivatives on the release of cys-leukotrienes” (Bioorg Med Chem, 2010) one finds IC50 data, which are given here for 14 compounds.

Each structure is given as a SMILES string. ≈ marks a conversion by molar mass, not a printed value.

The test system of the assay is HL-60 (Homo sapiens). Nature of the assay: Antiallergic activity in Ca(2+)-stimulated differentiated human HL-60 cells assessed as inhibition of cys-leukotriene release after 6 days by ELISA. The conditions noted are these: HL-60, 144 h. For orientation: ELISA stands for enzyme-linked immunosorbent assay.
As for `CC(C)=CCc1cc(/C=C/C(=O)OCCc2ccccc2)cc(CC=C(C)C)c1O` [ARTEPILLIN C PHENETHYL ESTER], the 50% inhibitory concentration (IC50) (as a rule, the midpoint of a concentration-inhibition curve) was 0.094 µg/mL (≈ 0.232 µM). `CC(C)=CCc1cc(/C=C/C(=O)O)ccc1O` [DRUPANIN]: the IC50 came out at 10.3 µg/mL (≈ 44.3 µM).

Consider `CC(C)=CCc1cc(/C=C/C(=O)OCCc2ccccc2)ccc1O` [DRUPANIN PHENETHYL ESTER], for which the IC50 stood at 0.2 µg/mL (≈ 0.594 µM). `CC(Cc1ccc(O)c(O)c1)C(C)Cc1ccc(O)c(O)c1` (centres undefined) [NORDIHYDROGUAIARETIC ACID]: the IC50 was found to be 0.08 µg/mL (≈ 0.265 µM). `CC(c1cc2ccccc2s1)N(O)C(N)=O` (centres undefined) [ZILEUTON]: the half-inhibitory concentration (IC50) came out at 0.04 µg/mL (≈ 0.169 µM). On to `O=C(/C=C/c1ccc(O)c(O)c1)OCCc1ccccc1` [CAFFEIC ACID PHENETHYL ESTER], for which the IC50 came to 0.068 µg/mL (≈ 0.239 µM).

Take `CC(C)=CCc1cc(/C=C/C(=O)O)cc2c1OC(C)(C)C=C2` [CULIFOLIN]: the concentration for half-maximal inhibition (IC50) came out at 1.6 µg/mL (≈ 5.36 µM).

Consider `CC(C)=CCc1cc(/C=C/C(=O)O)cc(CC=C(C)C)c1O` [ARTEPILLIN], for which the IC50 was determined as 7 µg/mL (≈ 23.3 µM). On to `O=C1C[C@@H](c2ccccc2)Oc2cc(O)cc(O)c21` [PINOCEMBRIN], for which the IC50 worked out at 6.1 µg/mL (≈ 23.8 µM).

In the case of `COc1ccc(-c2oc3cc(O)cc(O)c3c(=O)c2O)cc1` [KAEMPFERIDE], the concentration for half-maximal inhibition (IC50) is 2 µg/mL (≈ 6.66 µM). Under `CC(C)=CCc1cc(/C=C/C(=O)OCCc2ccccc2)cc2c1OC(C)(C)C=C2` [CULIFOLIN PHENETHYL ESTER] stands over 10 µg/mL. Consider `O=C(O)/C=C/c1ccc(O)c(O)c1` [CAFFEIC ACID], for which the half-maximal inhibitory concentration (IC50) came out at 44 µg/mL (≈ 244 µM). As for `O=c1c(O)c(-c2ccc(O)cc2)oc2cc(O)cc(O)c12` [KAEMPFEROL], the 50% inhibitory concentration (IC50) was 2.4 µg/mL (≈ 8.38 µM).

As to `CC(C)=CCc1cc(/C=C/C(=O)OCCc2ccccc2)ccc1OC(=O)CCc1ccccc1` [BACCHARIN PHENETHYL ESTER], the IC50 was over 10 µg/mL.
